compound: C[C@@H](Oc1cc(-c2cnn(C3CCNCC3)c2)cnc1N)c1c(Cl)ccc(F)c1Cl [Crizotinib] + C[C@]1(O)C[C@@H](c2nc(-c3ccc4ccc(-c5ccccc5)nc4c3)c3c(N)nccn32)C1 [Linsitinib] (partner 1 µM); assay: relative viability (nuclei count vs DMSO), 5 days (fraction); higher = more cells survive; conditions: first compound 0.1 µM
Outline: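 Relative viability was taken as the ratio of nuclei in treated wells to nuclei in vehicle wells. Lung cancer cell lines in 1536-well plates received compounds by pin tool one day after seeding, either one drug alone or a fixed anchor-drug dose plus five library-drug doses (not always all listed) in √10 steps. Nuclei were counted on 4× images after 5 days of treatment, and values are medians of duplicate plates.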

Compared with 201T, A549 is lower in relative viability: 1.04 for the first, 0.52 for the second.

First: A-427
Second: ABC-1
The relative viability of the first is higher: 1.16 for the first, 1.12 for the second.

Compared with BEN, CAL-12T is lower in relative viability: 0.818 for the first, 0.708 for the second.

Compared with COR-L23, COR-L 105 is higher in relative viability: 0.844 for the first, 0.929 for the second.

First: Calu-6
Second: EBC-1
The relative viability of the first is lower: 0.861 for the first, 0.889 for the second.

First: EKVX
Second: EMC-BAC-2
The relative viability of the first is higher: 1.02 for the first, 0.809 for the second.

Going from EPLC-272H to H3255, the relative viability falls from 1.17 to 0.974.

Going from HARA to HCC-15, the relative viability rises from 0.778 to 0.864.

First: HCC-44
Second: HCC-78
The relative viability of the first is higher: 0.595 for the first, 0.459 for the second.

Compared with HCC-366, HOP-62 is higher in relative viability: 0.649 for the first, 1.1 for the second.

Going from IA-LM to LC-2-ad, the relative viability rises from 0.649 to 0.762.

Compared with LCLC-97TM1, LCLC-103H is higher in relative viability: 0.177 for the first, 1 for the second.

Going from LK-2 to LOU-NH91, the relative viability rises from 0.541 to 0.963.

Compared with LU99A, LXF-289 is higher in relative viability: 0.528 for the first, 0.983 for the second.

First: NCI-H727
Second: NCI-H1299
The relative viability of the first is lower: 0.261 for the first, 1.02 for the second.

Going from NCI-H1563 to NCI-H1703, the relative viability falls from 1.22 to 0.727.

NCI-H2228 gave a relative viability of 0.718.

same assay, conditions: first compound 0.3162 µM

Compared with 201T, ABC-1 is higher in relative viability: 1.03 for the first, 1.09 for the second.

Going from BEN to CAL-12T, the relative viability falls from 1.04 to 0.748.

First: COR-L23
Second: COR-L 105
The relative viability of the first is lower: 0.802 for the first, 0.956 for the second.

Going from Calu-6 to EBC-1, the relative viability falls from 0.938 to 0.159.

Going from EKVX to EMC-BAC-2, the relative viability falls from 1 to 0.798.

Going from EPLC-272H to H3255, the relative viability falls from 1.14 to 0.841.

Going from HARA to HCC-15, the relative viability falls from 0.976 to 0.886.

Compared with HCC-44, HCC-78 is lower in relative viability: 0.704 for the first, 0.433 for the second.

Going from HCC-827 to HOP-62, the relative viability rises from 0.946 to 0.956.

First: IA-LM
Second: LCLC-97TM1
The relative viability of the first is higher: 0.507 for the first, 0.19 for the second.

Compared with LCLC-103H, LK-2 is lower in relative viability: 1.15 for the first, 0.458 for the second.

First: LOU-NH91
Second: LU99A
The relative viability of the first is higher: 0.991 for the first, 0.486 for the second.

First: LXF-289
Second: NCI-H727
The relative viability of the first is higher: 0.906 for the first, 0.271 for the second.

Going from NCI-H1299 to NCI-H1563, the relative viability rises from 0.99 to 1.3.

First: NCI-H1703
Second: NCI-H2228
The relative viability of the first is higher: 0.777 for the first, 0.371 for the second.

same assay, conditions: first compound 1 µM

Going from 201T to A549, the relative viability falls from 1.12 to 0.707.

First: A-427
Second: BEN
The relative viability of the first is higher: 1.1 for the first, 0.916 for the second.

Going from COR-L23 to COR-L 105, the relative viability rises from 0.925 to 0.972.

Compared with Calu-6, EBC-1 is lower in relative viability: 0.955 for the first, 0.167 for the second.

First: EKVX
Second: EMC-BAC-2
The relative viability of the first is higher: 0.975 for the first, 0.81 for the second.

Compared with EPLC-272H, H3255 is lower in relative viability: 1.27 for the first, 0.962 for the second.

Going from HARA to HCC-15, the relative viability rises from 0.873 to 0.946.

With HCC-44 the relative viability was 0.719.
